In this experiment the target is T1, PKC-ι (Homo sapiens, UniProt P41743).
T1 sequence (P41743 2-596): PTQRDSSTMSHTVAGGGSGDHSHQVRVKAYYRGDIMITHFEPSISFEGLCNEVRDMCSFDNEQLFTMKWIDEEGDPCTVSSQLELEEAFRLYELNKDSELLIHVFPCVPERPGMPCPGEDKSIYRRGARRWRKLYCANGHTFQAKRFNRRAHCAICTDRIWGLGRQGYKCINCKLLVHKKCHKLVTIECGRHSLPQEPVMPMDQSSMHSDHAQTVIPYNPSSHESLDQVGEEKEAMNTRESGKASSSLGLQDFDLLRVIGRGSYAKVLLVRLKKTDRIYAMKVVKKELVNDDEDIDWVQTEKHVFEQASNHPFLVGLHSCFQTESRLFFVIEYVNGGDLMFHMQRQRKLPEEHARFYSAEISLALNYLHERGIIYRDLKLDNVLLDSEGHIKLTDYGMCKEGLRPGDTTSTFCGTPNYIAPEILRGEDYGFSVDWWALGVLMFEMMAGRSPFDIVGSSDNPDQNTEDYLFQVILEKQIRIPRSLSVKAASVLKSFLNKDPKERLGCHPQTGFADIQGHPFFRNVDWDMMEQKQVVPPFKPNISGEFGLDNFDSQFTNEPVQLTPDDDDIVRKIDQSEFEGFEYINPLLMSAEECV
Put plainly: […]-ATP kinase assay of recombinant PKC-ι activated by PIP3, dose response. The experiment is classed as biochemical.

This is an account of results in paper PMC3543149 (Diabetologia, 2012).

For orientation: IC50 means the concentration needed to halve the response being measured.

Consider `NC(=O)c1ncn([C@@H]2C[C@H](COP(=O)(O)O)[C@@H](O)[C@H]2O)c1N` [ICAPP], for which the IC50 was in the range of 10 to 100 nM.
